Test results as given in paper PMC12332157, “A preclinical study on the influence of linkers in [^68Ga]Ga-NOTA-X-RM26 radiotracers for PET imaging of GRPR expression” (EJNMMI Research, 2025).
Starred links: 1 amine or outer side, 2 acyl side, 3 side chain; linkers in the order of their positions; H or OH if unused. Non-standard residues stand in square brackets, D forms with d. Residues, ends and D or L forms follow the SMILES beside them. *: point of attachment. NOTA = O=C(O)CN1CCN(CC(=O)O)CCN(CC(=O)*)CC1; Sta = CC(C)C[C@H](N)[C@@H](O)CC(=O)O; X2 = O=C(COc1cccc(CN[*:1])c1)[*:2]

Tested on: PC-3 xenografts
Test: PET/CT imaging of mice bearing PC-3 xenografts
Format: in vivo
Details: 2 h post injection, 100 pmol i.v.
Method: For PET/CT imaging, animals bearing PC-3 xenografts were used. The animals received a single intravenous injection of the corresponding ^68Ga-radiolabeled peptide (100 pmol, 1.2 MBq) and 2 h post injection they were euthanized using CO2. For image acquisition, Nano PET 3T (PET/MRI) and nanoScan (SPECT/CT) (Mediso Medical Imaging Systems, Budapest, Hungary) tomographs were used. Reconstruction of the PET scans was conducted using Nucline nanoScan 3.04.014.0000 software. CT data were reconstructed using Filter Back Projection in Nucline 2.03 Software (Mediso Medical Imaging Systems Ltd., Budapest, Hungary). For their fusion, Nucline 2.03 Software was used, and PET images are presented as maximum intensity projections (MIP) with an equivalent color scale.

uptake in PC-3 tumors on PET images: lower uptake
SMILES: CC(=O)N[C@@H](CCCCNC(=O)CN1CCN(CC(=O)O)CCN(CC(=O)O)CC1)C(=O)NCc1cccc(OCC(=O)N[C@H](Cc2ccccc2)C(=O)N[C@@H](CCC(N)=O)C(=O)N[C@@H](Cc2c[nH]c3ccccc23)C(=O)N[C@@H](C)C(=O)N[C@H](C(=O)NCC(=O)N[C@@H](Cc2c[nH]cn2)C(=O)N[C@@H](CC(C)C)[C@@H](O)CC(=O)N[C@@H](CC(C)C)C(N)=O)C(C)C)c1 [NOTA-mMA-RM26] (Ac-K(NOTA)[X2][dF]QWAVGH[Sta]L-NH2)
